# Measurements published in PMC9120017, “Inhibition mechanism of the chloride channel TMEM16A by the pore blocker 1PBC” (Nature Communications, 2022).
# Where two headings read alike, the source gives them in different places.
# Molecular target: T1, wild-type mouse TMEM16A (Mus musculus, UniProt Q8BHY3)
# T1 construct: expressed in transfected cells; host or cells: HEK293T
# T1 sequence (Q8BHY3 1-960): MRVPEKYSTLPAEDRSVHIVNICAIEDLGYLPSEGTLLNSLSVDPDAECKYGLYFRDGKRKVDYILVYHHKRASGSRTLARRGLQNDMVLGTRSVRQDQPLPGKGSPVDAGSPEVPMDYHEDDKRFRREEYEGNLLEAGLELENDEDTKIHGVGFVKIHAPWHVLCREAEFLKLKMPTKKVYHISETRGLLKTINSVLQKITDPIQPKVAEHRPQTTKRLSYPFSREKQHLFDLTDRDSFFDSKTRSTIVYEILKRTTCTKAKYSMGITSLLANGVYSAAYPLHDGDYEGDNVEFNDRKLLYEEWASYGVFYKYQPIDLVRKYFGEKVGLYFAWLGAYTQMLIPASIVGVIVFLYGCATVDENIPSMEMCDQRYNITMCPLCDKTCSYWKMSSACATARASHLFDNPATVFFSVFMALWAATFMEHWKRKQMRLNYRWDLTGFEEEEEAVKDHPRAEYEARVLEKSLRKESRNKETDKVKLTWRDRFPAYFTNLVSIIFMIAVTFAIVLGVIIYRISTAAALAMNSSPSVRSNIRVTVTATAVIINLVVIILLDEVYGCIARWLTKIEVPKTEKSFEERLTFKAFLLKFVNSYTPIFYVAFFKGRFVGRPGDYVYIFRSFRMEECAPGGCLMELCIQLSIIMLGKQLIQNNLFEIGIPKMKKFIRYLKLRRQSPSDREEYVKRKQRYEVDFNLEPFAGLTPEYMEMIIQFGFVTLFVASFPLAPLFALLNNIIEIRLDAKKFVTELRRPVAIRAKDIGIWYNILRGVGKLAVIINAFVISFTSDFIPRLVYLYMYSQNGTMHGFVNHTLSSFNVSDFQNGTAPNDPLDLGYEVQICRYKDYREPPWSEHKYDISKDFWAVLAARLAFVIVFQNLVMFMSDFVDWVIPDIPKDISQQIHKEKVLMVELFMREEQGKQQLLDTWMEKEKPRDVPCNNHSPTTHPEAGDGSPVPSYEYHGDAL
# Experiment: Inside-out patch recording of 1PBC block, wild-type TMEM16A
# Format: cell-based
# Protocol: HEK293T cells (ATCC CRL-1573) were maintained in Dulbecco’s modified Eagle’s medium (DMEM; Sigma-Aldrich) supplemented with 10 U ml^−1 penicillin, 0.1 mg ml^−1 streptomycin (Sigma-Aldrich), 2 mM L-glutamine (Sigma-Aldrich), and 10% FBS (Sigma-Aldrich) in a humidified atmosphere containing 5% CO2 at 37 °C. HEK293S GnTI^− cells (ATCC CRL-3022) were maintained in HyClone HyCell TransFx-H medium (GE Healthcare) supplemented with 10 U ml^−1 penicillin, 0.1 mg ml^−1 streptomycin, 4 mM L-glutamine, 0.15% poloxamer 188 (Sigma-Aldrich), and 1% FBS in an atmosphere containing 5% CO2 at 185 rpm at 37 °C. The ac splice variant of mouse TMEM16A (UniProt ID: Q8BHY3), mouse TMEM16B (UniProt ID: Q8CFW1), or mouse TMEM16F (UniProt ID: Q6P9J9) bearing a 3C cleavage site, a Venus YFP, a Myc tag, and a Streptavidin-binding peptide (SBP) downstream of the open reading frame in a modified pcDNA3.1 vector (Invitrogen) were used as described previously[21],[31]. Mutations were introduced using a modified QuikChange method[58] and were verified by sequencing.
# HEK293T cells were transfected with 3–4 μg DNA per 6 cm Petri dish using the calcium phosphate co-precipitation method and were used within 24–96 h after transfection. Recordings were performed on inside-out patches excised from HEK293T cells expressing the construct of interest. Patch pipettes were pulled from borosilicate glass capillaries (O.D. 1.5 mm, I.D. 0.86 mm, Sutter Instrument) and were fire-polished with a microforge (Narishige) before use. Pipette resistance was typically 3–8 MΩ when filled with the recording solutions detailed below. Seal resistance was typically 4 GΩ or higher. Voltage-clamp recordings were made using Axopatch 200B, Digidata 1550, and Clampex 10.7 (Molecular Devices). Analog signals were filtered with the in-built 4-pole Bessel filter at 10 kHz and were digitized at 20 kHz. Solution exchange was achieved using a gravity-fed system through a theta glass pipette mounted on an ultra-fast piezo-driven stepper (Siskiyou). […] All recordings were performed at 20 °C.
# A symmetrical ionic condition was used throughout. Stock solution with Ca^2+-EGTA contained 150 mM NaCl, 5.99 mM Ca(OH)2, 5 mM EGTA, and 10 mM HEPES at pH 7.40. Stock solution with EGTA contained 150 mM NaCl, 5 mM EGTA, and 10 mM HEPES at pH 7.40. Free Ca^2+ concentrations were adjusted by mixing the stock solutions at the required ratios calculated using the WEBMAXC program (http://web.stanford.edu/~cpatton/webmaxcS.htm). Patch pipettes were filled with the stock solution with Ca^2+-EGTA, which has a free Ca^2+ concentration of 1 mM. 1PBC (ChemBridge) stock was reconstituted in anhydrous DMSO (Sigma-Aldrich) at 100 mM and stored at −20 °C. Working solutions with 1PBC were prepared by serial dilution. Unless otherwise stated, experiments were performed at a saturating Ca^2+ concentration as shown in Supplementary Table 1 and the primary data were corrected for current rundown as described previously[21],[25].
# Concentration-response relations, obtained from the ratio of the I-V plots before and after the application of the blocker, were fitted to the Hill equation,1 I/Imax=1/1+IC50/[blocker]^h where I/Imax is the normalized current responses, IC50 defines the concentration at which inhibition is at its half-maximum, and h is the Hill coefficient.
smiles,measurement,setting,value
N#Cc1c(C(F)(F)F)cc(O)n2c1nc1ccccc12 [1PBC],Steady-state current (normalized),"10 µM 1PBC, -60 mV, 2 µM Ca2+",-0.2628
same,remaining activity at 10 µM,"10 µM 1PBC, -60 mV, 2 µM Ca2+, read-out: I/Imax",45.4%
same,Steady-state current (normalized),"10 µM 1PBC, -80 mV, 2 µM Ca2+",-0.388
same,remaining activity at 10 µM,"10 µM 1PBC, -80 mV, 2 µM Ca2+, read-out: I/Imax",50.6%
same,Steady-state current (normalized),"10 µM 1PBC, -100 mV, 2 µM Ca2+",-0.5211
same,remaining activity at 10 µM,"10 µM 1PBC, -100 mV, 2 µM Ca2+, read-out: I/Imax",54.8%
same,Steady-state current (normalized),"10 µM 1PBC, -120 mV, 2 µM Ca2+",-0.6616
same,remaining activity at 10 µM,"10 µM 1PBC, -120 mV, 2 µM Ca2+, read-out: I/Imax",59.1%
same,Steady-state current (normalized),"10 µM 1PBC, -140 mV, 2 µM Ca2+",-0.7984
same,remaining activity at 10 µM,"10 µM 1PBC, -140 mV, 2 µM Ca2+, read-out: I/Imax",62.2%
same,Steady-state current (normalized),"30 µM 1PBC, 0 mV, 2 µM Ca2+",0.0002811
same,remaining activity at 30 µM,"30 µM 1PBC, 0 mV, 2 µM Ca2+, read-out: I/Imax",11.5%
same,I/Imax scaled to open probability,"30 µM 1PBC, 400 nM Ca2+, 80 mV",0.04177
same,I/Imax scaled to open probability,"30 µM 1PBC, 800 nM Ca2+, 80 mV",0.04061
same,I/Imax scaled to open probability,"30 µM 1PBC, 2 µM Ca2+, 80 mV",0.05533
same,Steady-state current (normalized),"30 µM 1PBC, 20 mV, 2 µM Ca2+",0.01874
same,remaining activity at 30 µM,"30 µM 1PBC, 20 mV, 2 µM Ca2+, read-out: I/Imax",9.63%
same,Steady-state current (normalized),"30 µM 1PBC, 40 mV, 2 µM Ca2+",0.03065
same,remaining activity at 30 µM,"30 µM 1PBC, 40 mV, 2 µM Ca2+, read-out: I/Imax",8.13%
same,Steady-state current (normalized),"30 µM 1PBC, 60 mV, 2 µM Ca2+",0.03882
same,remaining activity at 30 µM,"30 µM 1PBC, 60 mV, 2 µM Ca2+, read-out: I/Imax",7.03%
same,Steady-state current (normalized),"30 µM 1PBC, 80 mV, 2 µM Ca2+",0.04513
same,remaining activity at 30 µM,"30 µM 1PBC, 80 mV, 2 µM Ca2+, read-out: I/Imax",6.38%
same,Steady-state current (normalized),"30 µM 1PBC, 100 mV, 2 µM Ca2+",0.0498
same,remaining activity at 30 µM,"30 µM 1PBC, 100 mV, 2 µM Ca2+, read-out: I/Imax",5.86%
same,Steady-state current (normalized),"30 µM 1PBC, 120 mV, 2 µM Ca2+",0.05715
same,remaining activity at 30 µM,"30 µM 1PBC, 120 mV, 2 µM Ca2+, read-out: I/Imax",5.87%
same,Steady-state current (normalized),"30 µM 1PBC, 140 mV, 2 µM Ca2+",0.0661
same,remaining activity at 30 µM,"30 µM 1PBC, 140 mV, 2 µM Ca2+, read-out: I/Imax",6.08%
same,Steady-state current (normalized),"30 µM 1PBC, -20 mV, 2 µM Ca2+",-0.02579
same,remaining activity at 30 µM,"30 µM 1PBC, -20 mV, 2 µM Ca2+, read-out: I/Imax",13.4%
same,Steady-state current (normalized),"30 µM 1PBC, -40 mV, 2 µM Ca2+",-0.06545
same,remaining activity at 30 µM,"30 µM 1PBC, -40 mV, 2 µM Ca2+, read-out: I/Imax",16.9%
same,Steady-state current (normalized),"30 µM 1PBC, -60 mV, 2 µM Ca2+",-0.1171
same,remaining activity at 30 µM,"30 µM 1PBC, -60 mV, 2 µM Ca2+, read-out: I/Imax",20.2%
same,Steady-state current (normalized),"30 µM 1PBC, -80 mV, 2 µM Ca2+",-0.1843
same,remaining activity at 30 µM,"30 µM 1PBC, -80 mV, 2 µM Ca2+, read-out: I/Imax",24%
same,Steady-state current (normalized),"30 µM 1PBC, -100 mV, 2 µM Ca2+",-0.264
same,remaining activity at 30 µM,"30 µM 1PBC, -100 mV, 2 µM Ca2+, read-out: I/Imax",27.8%
same,Steady-state current (normalized),"30 µM 1PBC, -120 mV, 2 µM Ca2+",-0.3545
same,remaining activity at 30 µM,"30 µM 1PBC, -120 mV, 2 µM Ca2+, read-out: I/Imax",31.7%
same,Steady-state current (normalized),"30 µM 1PBC, -140 mV, 2 µM Ca2+",-0.4476
same,remaining activity at 30 µM,"30 µM 1PBC, -140 mV, 2 µM Ca2+, read-out: I/Imax",34.8%
same,Steady-state current (normalized),"100 µM 1PBC, 0 mV, 2 µM Ca2+",0.0001085
same,remaining activity at 100 µM,"100 µM 1PBC, 0 mV, 2 µM Ca2+, read-out: I/Imax",4.44%
same,I/Imax scaled to open probability,"100 µM 1PBC, 400 nM Ca2+, 80 mV",0.01539
same,I/Imax scaled to open probability,"100 µM 1PBC, 800 nM Ca2+, 80 mV",0.01603
